Experimental data from ChEMBL document CHEMBL4482315, “In vivo imaging of sulfotransferases” (2013).

How the values were obtained:
[1] = molecular target: T1, Sulfotransferase 2A1 (Homo sapiens, UniProt Q06520); assay: Substrate activity at SULT2A1 (unknown origin) expressed in baculovirus infected Sf9 cells assessed as substrate Km incubated for 15 mins using [35S-]PAPS as sulfate donor by TLC analysis; conditions: sf9, 0.25 h, BLD = below limit of detection
T1 sequence (Q06520 whole entry): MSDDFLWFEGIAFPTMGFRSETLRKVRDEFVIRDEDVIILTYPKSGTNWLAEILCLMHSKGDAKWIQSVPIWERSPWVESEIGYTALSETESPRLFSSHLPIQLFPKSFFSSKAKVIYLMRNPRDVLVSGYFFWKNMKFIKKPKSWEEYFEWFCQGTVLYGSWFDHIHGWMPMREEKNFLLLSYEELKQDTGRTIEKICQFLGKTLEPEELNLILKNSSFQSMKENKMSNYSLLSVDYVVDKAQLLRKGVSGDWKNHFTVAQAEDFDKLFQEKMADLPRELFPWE

[2] = molecular target: T1, Sulfotransferase 2A1; assay: Substrate activity at SULT2A1 (unknown origin) expressed in baculovirus infected Sf9 cells assessed as substrate Vmax incubated for 15 mins using [35S-]PAPS as sulfate donor by TLC analysis; conditions: sf9, 0.25 h, BLD = below limit of detection
[3] = molecular target: T1, Sulfotransferase 2A1; assay: Substrate activity at SULT2A1 (unknown origin) expressed in baculovirus infected Sf9 cells assessed as substrate Vmax/Km ratio incubated for 15 mins using [35S-]PAPS as sulfate donor by TLC analysis; conditions: sf9, 0.25 h, BLD = below limit of detection
[4] = molecular target: T2, Sulfotransferase 1E1 (Homo sapiens, UniProt P49888); assay: Substrate activity at SULT1E1 (unknown origin) expressed in baculovirus infected Sf9 cells assessed as substrate Vmax/Km ratio level incubated for 15 mins using [35S-]PAPS as sulfate donor by TLC analysis; conditions: sf9, 0.25 h
T2 sequence (P49888 whole entry): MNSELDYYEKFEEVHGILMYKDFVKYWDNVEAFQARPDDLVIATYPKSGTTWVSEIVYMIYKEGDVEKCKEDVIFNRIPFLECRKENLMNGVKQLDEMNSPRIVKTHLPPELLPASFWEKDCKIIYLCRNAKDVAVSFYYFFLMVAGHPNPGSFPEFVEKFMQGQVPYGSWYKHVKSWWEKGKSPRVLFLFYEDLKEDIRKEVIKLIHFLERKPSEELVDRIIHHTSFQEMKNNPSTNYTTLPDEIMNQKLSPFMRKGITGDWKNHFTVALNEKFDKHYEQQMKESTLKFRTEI

[5] = molecular target: T3, Sulfotransferase 1A1 (Homo sapiens, UniProt P50225); assay: Substrate activity at SULT1A1 (unknown origin) expressed in baculovirus infected Sf9 cells assessed as substrate Vmax incubated for 15 mins using [35S-]PAPS as sulfate donor by TLC analysis; conditions: sf9, 0.25 h, BLD = below limit of detection
T3 sequence (P50225 whole entry): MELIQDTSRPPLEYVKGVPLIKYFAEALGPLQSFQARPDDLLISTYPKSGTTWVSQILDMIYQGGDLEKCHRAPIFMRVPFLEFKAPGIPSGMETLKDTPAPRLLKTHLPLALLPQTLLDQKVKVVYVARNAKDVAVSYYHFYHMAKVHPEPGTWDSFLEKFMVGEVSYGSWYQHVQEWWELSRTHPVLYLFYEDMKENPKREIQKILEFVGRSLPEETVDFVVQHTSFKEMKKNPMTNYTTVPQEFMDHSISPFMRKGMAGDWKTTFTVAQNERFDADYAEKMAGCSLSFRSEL

[6] = molecular target: T3, Sulfotransferase 1A1; assay: Substrate activity at SULT1A1 (unknown origin) expressed in baculovirus infected Sf9 cells assessed as substrate Vmax/Km ratio incubated for 15 mins using [35S-]PAPS as sulfate donor by TLC analysis; conditions: sf9, 0.25 h, BLD = below limit of detection
[7] = molecular target: T3, Sulfotransferase 1A1; assay: Substrate activity at SULT1A1 (unknown origin) expressed in baculovirus infected Sf9 cells assessed as substrate Km incubated for 15 mins using [35S-]PAPS as sulfate donor by TLC analysis; conditions: sf9, 0.25 h, BLD = below limit of detection
[8] = Drug uptake in liver of non-smoker human subject at 10 mCi by microPET imaging method; assay type: ADME
[9] = Drug uptake in liver of smoker human subject at 10.5 mCi by microPET imaging method; assay type: ADME
[10] = Drug uptake in lung of smoker human subject at 10.5 mCi by microPET imaging method; assay type: ADME
[11] = Drug uptake in kidney of non-smoker human subject at 10 mCi by microPET imaging method; assay type: ADME
[12] = Drug uptake in kidney of smoker human subject at 10.5 mCi by microPET imaging method; assay type: ADME
[13] = Drug uptake in lung of non-smoker human subject at 10 mCi by microPET imaging method; assay type: ADME
[14] = Drug uptake in lung of Sprague-Dawley rat with lung inflammation assessed as sulfated form formation at 2 to 2.5 mCi dosed via injection measured after 10 to 15 mins post dose by microPET imaging method; assay type: ADME, organism-based; conditions: in vivo
[15] = molecular target: T2, Sulfotransferase 1E1; assay: Substrate activity at SULT1E1 (unknown origin) expressed in baculovirus infected Sf9 cells assessed as substrate Km incubated for 15 mins using [35S-]PAPS as sulfate donor by TLC analysis; conditions: sf9, 0.25 h, BLD = below limit of detection
[16] = molecular target: T2, Sulfotransferase 1E1; assay: Substrate activity at SULT1E1 (unknown origin) expressed in baculovirus infected Sf9 cells assessed as substrate Vmax incubated for 15 mins using [35S-]PAPS as sulfate donor by TLC analysis; conditions: sf9, 0.25 h, BLD = below limit of detection

## Oc1ccc2ccsc2c1
[1]
  Km: Bld
[2]
  Vmax: Bld
[3]
  Vmax/Km: Bld
[4]
  Vmax/Km: 0.25

## Oc1ccc2nc(-c3ccccc3)sc2c1
[1]
  Km: Bld
[2]
  Vmax: Bld
[3]
  Vmax/Km: Bld
[4]
  Vmax/Km: 3.22

## Oc1ccc2occc2c1
[1]
  Km: Bld
[2]
  Vmax: Bld
[3]
  Vmax/Km: Bld
[4]
  Vmax/Km: 0.01

## O=[N+]([O-])c1ccc(-c2nc3ccc(O)cc3s2)cc1
[1]
  Km: Bld
[2]
  Vmax: Bld
[3]
  Vmax/Km: Bld
[5]
  Vmax: Bld
[6]
  Vmax/Km: Bld
[7]
  Km: Bld
[4]
  Vmax/Km: 29.2

## CNc1ccc(-c2nc3cc(O)ccc3s2)cc1
[1]
  Km: Bld
[2]
  Vmax: Bld
[3]
  Vmax/Km: Bld
[4]
  Vmax/Km: 1.39

## CN(C)c1ccc(-c2nc3cc(O)ccc3s2)cc1
[1]
  Km: Bld
[2]
  Vmax: Bld
[3]
  Vmax/Km: Bld
[4]
  Vmax/Km: 2.47

## Oc1ccc2ccccc2c1 [BETANAPHTHOL]
[4]
  Vmax/Km: 0.57

## [11CH3]Nc1ccc(-c2nc3ccc(O)cc3s2)cc1 [PITTSBURGH COMPOUND B]
[8]
  Drug uptake: Active
[9]
  Drug uptake: Active
[10]
  Drug uptake: Active
[11]
  Drug uptake: Active
[12]
  Drug uptake: Active
[13]
  Drug uptake: Active
[14]
  Drug uptake: Active

## CNc1ccc(-c2nc3ccc(O)cc3s2)cc1 [PITTSBURGH COMPOUND B UNLABELLED]
[1]
  Km: Bld
[2]
  Vmax: Bld
[3]
  Vmax/Km: Bld
[5]
  Vmax: Bld
[6]
  Vmax/Km: Bld
[7]
  Km: Bld
[4]
  Vmax/Km: 1.28

## Oc1ccc2nc(-c3ccc(F)cc3)sc2c1
[1]
  Km: Bld
[2]
  Vmax: Bld
[3]
  Vmax/Km: Bld
[5]
  Vmax: Bld
[6]
  Vmax/Km: Bld
[7]
  Km: Bld
[4]
  Vmax/Km: 4.52

## Oc1ccc2ncsc2c1
[1]
  Km: Bld
[2]
  Vmax: Bld
[3]
  Vmax/Km: Bld
[4]
  Vmax/Km: 0.04

## Oc1ccc2nc(-c3ccc(I)cc3)sc2c1
[1]
  Km: Bld
[2]
  Vmax: Bld
[3]
  Vmax/Km: Bld
[5]
  Vmax: Bld
[6]
  Vmax/Km: Bld
[7]
  Km: Bld
[4]
  Vmax/Km: 5.64

## Cc1nc2cc(O)ccc2s1
[1]
  Km: Bld
[2]
  Vmax: Bld
[3]
  Vmax/Km: Bld
[4]
  Vmax/Km: 0.3

## Oc1ccc2sccc2c1
[1]
  Km: Bld
[2]
  Vmax: Bld
[3]
  Vmax/Km: Bld
[4]
  Vmax/Km: 0.08

## CS(=O)(=O)c1ccc(-c2nc3ccc(O)cc3s2)cc1
[1]
  Km: Bld
[2]
  Vmax: Bld
[3]
  Vmax/Km: Bld
[5]
  Vmax: Bld
[6]
  Vmax/Km: Bld
[7]
  Km: Bld
[4]
  Vmax/Km: 2.69

## Oc1ccc2cc[nH]c2c1
[15]
  Km: Bld
[1]
  Km: Bld
[2]
  Vmax: Bld
[3]
  Vmax/Km: Bld
[16]
  Vmax: Bld
[4]; BLD = below limit of detection
  Vmax/Km: Bld

## Cc1nc2ccc(O)cc2s1
[1]
  Km: Bld
[2]
  Vmax: Bld
[3]
  Vmax/Km: Bld
[4]
  Vmax/Km: 0.47

## Nc1ccc(-c2nc3ccc(O)cc3s2)cc1
[1]
  Km: Bld
[2]
  Vmax: Bld
[3]
  Vmax/Km: Bld
[5]
  Vmax: Bld
[6]
  Vmax/Km: Bld
[7]
  Km: Bld
[4]
  Vmax/Km: 1.7

## COc1ccc(-c2nc3ccc(O)cc3s2)cc1
[1]
  Km: Bld
[2]
  Vmax: Bld
[3]
  Vmax/Km: Bld
[5]
  Vmax: Bld
[6]
  Vmax/Km: Bld
[7]
  Km: Bld
[4]
  Vmax/Km: 2.19

## CC(=O)Nc1ccc(-c2nc3ccc(O)cc3s2)cc1
[1]
  Km: Bld
[2]
  Vmax: Bld
[3]
  Vmax/Km: Bld
[5]
  Vmax: Bld
[6]
  Vmax/Km: Bld
[7]
  Km: Bld
[4]
  Vmax/Km: 0.87

## Oc1ccc2[nH]ccc2c1
[15]
  Km: Bld
[1]
  Km: Bld
[2]
  Vmax: Bld
[3]
  Vmax/Km: Bld
[16]
  Vmax: Bld
[4]; BLD = below limit of detection
  Vmax/Km: Bld

## Oc1ccc2ncoc2c1
[1]
  Km: Bld
[2]
  Vmax: Bld
[3]
  Vmax/Km: Bld
[4]
  Vmax/Km: 0.006

## N#Cc1ccc(-c2nc3ccc(O)cc3s2)cc1
[1]
  Km: Bld
[2]
  Vmax: Bld
[3]
  Vmax/Km: Bld
[5]
  Vmax: Bld
[6]
  Vmax/Km: Bld
[7]
  Km: Bld
[4]
  Vmax/Km: 17.1

## CN(C)c1ccc(-c2nc3ccc(O)cc3s2)cc1
[1]
  Km: Bld
[2]
  Vmax: Bld
[3]
  Vmax/Km: Bld
[5]
  Vmax: Bld
[6]
  Vmax/Km: Bld
[7]
  Km: Bld
[4]
  Vmax/Km: 1.11

## Oc1ccc2ccoc2c1
[1]
  Km: Bld
[2]
  Vmax: Bld
[3]
  Vmax/Km: Bld
[4]
  Vmax/Km: 0.03

## Oc1ccc2[nH]cnc2c1
[15]
  Km: Bld
[1]
  Km: Bld
[2]
  Vmax: Bld
[3]
  Vmax/Km: Bld
[16]
  Vmax: Bld
[4]; BLD = below limit of detection
  Vmax/Km: Bld
